From ChEMBL document CHEMBL5465560, “Selectivity Literature for EUbOPEN Chemogenomic Library” (2024)

Key:
[1] = biological target: T1, Serine/threonine-protein kinase Nek11 (Homo sapiens) (UniProt Q8NG66); experiment: Selectivity interaction (KinomeScan (DiscoverX)) EUB0000618a NEK11; details: at 10 µM
T1 sequence (whole entry): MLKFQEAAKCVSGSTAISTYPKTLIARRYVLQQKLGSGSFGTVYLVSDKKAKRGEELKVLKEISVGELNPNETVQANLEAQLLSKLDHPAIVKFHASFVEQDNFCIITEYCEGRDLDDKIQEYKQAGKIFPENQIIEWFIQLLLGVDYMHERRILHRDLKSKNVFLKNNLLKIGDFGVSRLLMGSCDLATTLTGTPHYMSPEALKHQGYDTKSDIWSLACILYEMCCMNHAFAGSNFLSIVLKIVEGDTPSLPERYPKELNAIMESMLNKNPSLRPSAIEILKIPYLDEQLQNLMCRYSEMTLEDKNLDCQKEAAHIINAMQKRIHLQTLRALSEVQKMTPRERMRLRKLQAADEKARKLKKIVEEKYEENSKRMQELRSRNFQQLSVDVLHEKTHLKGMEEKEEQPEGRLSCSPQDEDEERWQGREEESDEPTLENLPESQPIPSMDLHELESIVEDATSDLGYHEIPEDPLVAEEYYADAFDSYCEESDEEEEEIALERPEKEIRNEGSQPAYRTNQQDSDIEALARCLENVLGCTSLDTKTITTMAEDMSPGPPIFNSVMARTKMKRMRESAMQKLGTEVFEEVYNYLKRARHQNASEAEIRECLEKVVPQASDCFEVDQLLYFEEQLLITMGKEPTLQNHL

[2] = biological target: Mitogen-activated protein kinase 1 (Homo sapiens, UniProt P28482); experiment: Selectivity interaction (KinomeScan (DiscoverX)) EUB0000618a MAPK1; details: at 10 µM
Mitogen-activated protein kinase 1, sequence (P28482 whole entry): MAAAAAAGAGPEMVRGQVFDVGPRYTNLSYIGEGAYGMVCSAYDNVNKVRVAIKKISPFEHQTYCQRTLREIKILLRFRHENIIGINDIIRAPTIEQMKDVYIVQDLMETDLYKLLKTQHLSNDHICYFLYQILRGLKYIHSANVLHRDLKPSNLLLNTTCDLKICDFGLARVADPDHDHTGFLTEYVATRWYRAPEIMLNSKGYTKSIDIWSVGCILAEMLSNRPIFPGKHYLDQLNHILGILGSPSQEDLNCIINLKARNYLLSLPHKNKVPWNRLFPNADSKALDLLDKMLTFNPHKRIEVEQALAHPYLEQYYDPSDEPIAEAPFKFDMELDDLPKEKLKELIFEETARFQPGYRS

[3] = biological target: T2, Dual serine/threonine and tyrosine protein kinase (Homo sapiens) (UniProt Q6XUX3); experiment: Selectivity interaction (KinomeScan (DiscoverX)) EUB0000595a DSTYK; details: at 10 µM
T2 sequence (whole entry): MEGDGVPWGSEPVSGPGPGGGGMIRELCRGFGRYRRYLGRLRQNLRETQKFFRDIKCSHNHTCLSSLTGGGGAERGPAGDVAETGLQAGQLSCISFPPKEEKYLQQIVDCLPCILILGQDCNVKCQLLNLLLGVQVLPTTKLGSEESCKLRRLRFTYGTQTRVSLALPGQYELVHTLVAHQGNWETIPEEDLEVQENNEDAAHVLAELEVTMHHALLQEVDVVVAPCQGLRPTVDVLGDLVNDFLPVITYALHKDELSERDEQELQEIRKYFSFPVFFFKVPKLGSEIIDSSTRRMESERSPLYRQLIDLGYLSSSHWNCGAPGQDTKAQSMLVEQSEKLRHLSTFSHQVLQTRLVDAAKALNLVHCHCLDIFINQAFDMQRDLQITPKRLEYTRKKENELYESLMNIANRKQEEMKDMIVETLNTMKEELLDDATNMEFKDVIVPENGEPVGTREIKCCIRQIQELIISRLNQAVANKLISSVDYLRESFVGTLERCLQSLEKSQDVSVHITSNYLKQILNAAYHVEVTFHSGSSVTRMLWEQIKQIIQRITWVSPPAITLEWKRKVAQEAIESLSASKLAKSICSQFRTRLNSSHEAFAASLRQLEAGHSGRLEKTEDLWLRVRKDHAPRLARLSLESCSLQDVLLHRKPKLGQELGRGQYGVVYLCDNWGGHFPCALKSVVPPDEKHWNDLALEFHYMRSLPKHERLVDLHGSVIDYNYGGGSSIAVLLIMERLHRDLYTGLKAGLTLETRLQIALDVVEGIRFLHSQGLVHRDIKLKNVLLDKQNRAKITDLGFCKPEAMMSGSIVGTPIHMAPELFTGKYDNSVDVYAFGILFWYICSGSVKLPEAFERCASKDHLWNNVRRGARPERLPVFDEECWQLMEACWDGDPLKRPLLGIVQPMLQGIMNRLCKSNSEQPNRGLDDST

[4] = biological target: T3, Inhibitor of nuclear factor kappa-B kinase subunit beta (Homo sapiens) (UniProt O14920); experiment: Selectivity interaction (ActivX KiNativ screen (kinase selectivity in THP-1 cell lysates)) EUB0000639a IKBKB; format: subcellular; details: lysate, at 0.2 µM
T3 sequence (whole entry): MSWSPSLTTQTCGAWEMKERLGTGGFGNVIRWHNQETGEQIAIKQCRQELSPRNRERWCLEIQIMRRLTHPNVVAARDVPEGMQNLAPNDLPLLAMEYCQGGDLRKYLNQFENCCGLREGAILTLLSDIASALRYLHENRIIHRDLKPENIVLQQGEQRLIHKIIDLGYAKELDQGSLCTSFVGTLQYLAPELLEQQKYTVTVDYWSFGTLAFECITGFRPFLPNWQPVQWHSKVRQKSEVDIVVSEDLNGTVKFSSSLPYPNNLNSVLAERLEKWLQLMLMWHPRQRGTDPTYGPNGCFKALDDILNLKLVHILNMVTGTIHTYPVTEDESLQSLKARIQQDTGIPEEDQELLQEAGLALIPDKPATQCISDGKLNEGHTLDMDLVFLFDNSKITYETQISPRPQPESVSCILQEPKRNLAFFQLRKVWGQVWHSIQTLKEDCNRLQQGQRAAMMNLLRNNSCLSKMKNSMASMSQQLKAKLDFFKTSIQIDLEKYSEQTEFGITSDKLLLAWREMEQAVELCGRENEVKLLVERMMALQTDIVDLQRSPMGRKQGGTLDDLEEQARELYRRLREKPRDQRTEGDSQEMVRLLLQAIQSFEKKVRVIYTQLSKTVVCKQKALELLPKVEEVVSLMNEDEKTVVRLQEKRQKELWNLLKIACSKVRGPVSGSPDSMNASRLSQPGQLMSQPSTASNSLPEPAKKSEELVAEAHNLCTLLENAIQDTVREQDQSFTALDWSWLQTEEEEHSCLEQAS

[5] = biological target: T4, Serine/threonine-protein kinase 17B (Homo sapiens) (UniProt O94768); experiment: Selectivity interaction (KinomeScan (DiscoverX)) EUB0000229b STK17B; details: at 10 µM
T4 sequence (whole entry): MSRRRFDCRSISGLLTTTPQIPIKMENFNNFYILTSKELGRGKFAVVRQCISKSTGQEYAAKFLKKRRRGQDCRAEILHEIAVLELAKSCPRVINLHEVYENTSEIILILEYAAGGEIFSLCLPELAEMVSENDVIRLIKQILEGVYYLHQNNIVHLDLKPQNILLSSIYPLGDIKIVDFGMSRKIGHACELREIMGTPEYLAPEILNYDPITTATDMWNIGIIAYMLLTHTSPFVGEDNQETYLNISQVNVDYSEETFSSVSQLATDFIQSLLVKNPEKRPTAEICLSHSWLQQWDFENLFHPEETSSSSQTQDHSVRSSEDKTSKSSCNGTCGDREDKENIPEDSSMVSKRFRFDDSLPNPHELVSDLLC

[6] = biological target: Casein kinase I isoform epsilon (Homo sapiens, UniProt P49674); experiment: Selectivity interaction (ProQinase) EUB0000171b CSNK1E
Casein kinase I isoform epsilon, sequence (P49674 whole entry, looked up, canonical isoform): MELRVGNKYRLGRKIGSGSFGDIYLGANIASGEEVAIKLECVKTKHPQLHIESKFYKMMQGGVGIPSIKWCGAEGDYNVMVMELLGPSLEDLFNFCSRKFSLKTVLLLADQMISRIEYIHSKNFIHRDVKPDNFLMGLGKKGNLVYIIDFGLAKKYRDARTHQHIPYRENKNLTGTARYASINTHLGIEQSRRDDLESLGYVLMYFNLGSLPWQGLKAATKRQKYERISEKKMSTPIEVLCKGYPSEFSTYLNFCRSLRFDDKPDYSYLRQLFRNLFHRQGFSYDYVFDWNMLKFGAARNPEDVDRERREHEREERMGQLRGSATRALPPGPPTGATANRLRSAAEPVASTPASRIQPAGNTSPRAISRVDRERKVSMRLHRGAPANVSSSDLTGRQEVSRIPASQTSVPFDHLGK

[7] = biological target: Phosphatidylinositol 4,5-bisphosphate 3-kinase catalytic subunit alpha isoform (Homo sapiens) (UniProt P42336); experiment: Selectivity interaction (Adapta Assay) EUB0001632a PIK3CA; details: at 10 µM
Phosphatidylinositol 4,5-bisphosphate 3-kinase catalytic subunit alpha isoform (Homo sapiens), sequence (P42336 whole entry, canonical isoform): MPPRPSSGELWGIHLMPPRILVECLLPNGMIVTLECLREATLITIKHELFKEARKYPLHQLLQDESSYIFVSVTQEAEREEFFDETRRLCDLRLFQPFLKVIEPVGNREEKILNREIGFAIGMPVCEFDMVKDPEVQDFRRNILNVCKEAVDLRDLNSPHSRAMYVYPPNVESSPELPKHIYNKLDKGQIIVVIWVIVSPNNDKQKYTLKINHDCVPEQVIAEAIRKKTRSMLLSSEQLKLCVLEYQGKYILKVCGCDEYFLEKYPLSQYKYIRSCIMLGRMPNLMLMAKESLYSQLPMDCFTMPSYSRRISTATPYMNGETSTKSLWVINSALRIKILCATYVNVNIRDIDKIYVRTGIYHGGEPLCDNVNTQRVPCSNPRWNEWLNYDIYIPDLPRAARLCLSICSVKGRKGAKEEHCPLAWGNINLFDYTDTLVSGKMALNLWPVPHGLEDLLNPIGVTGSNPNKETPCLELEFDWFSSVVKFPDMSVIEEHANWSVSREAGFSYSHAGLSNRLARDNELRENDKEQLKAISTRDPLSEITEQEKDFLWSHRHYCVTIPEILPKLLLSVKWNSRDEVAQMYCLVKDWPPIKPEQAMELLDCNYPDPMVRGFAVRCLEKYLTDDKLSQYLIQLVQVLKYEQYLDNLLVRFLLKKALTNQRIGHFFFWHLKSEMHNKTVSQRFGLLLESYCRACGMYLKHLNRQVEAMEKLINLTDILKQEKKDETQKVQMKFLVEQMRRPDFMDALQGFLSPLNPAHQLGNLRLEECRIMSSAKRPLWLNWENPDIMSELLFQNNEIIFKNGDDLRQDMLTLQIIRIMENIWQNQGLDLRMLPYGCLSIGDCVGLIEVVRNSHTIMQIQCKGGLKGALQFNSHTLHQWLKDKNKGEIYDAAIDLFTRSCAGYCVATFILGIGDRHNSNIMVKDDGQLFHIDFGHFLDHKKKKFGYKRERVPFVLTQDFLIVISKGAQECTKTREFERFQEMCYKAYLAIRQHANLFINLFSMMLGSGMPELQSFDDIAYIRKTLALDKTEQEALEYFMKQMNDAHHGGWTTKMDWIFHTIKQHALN

O[C@H]1CC[C@H](Nc2ncc3nc(Nc4c(F)cc(F)cc4F)n([C@H]4CCOC4)c3n2)CC1
% of control [1]: 90% | % of control [2]: 15%

COCC(=O)NC/C=C/c1ccc2ncnc(Nc3ccc(Oc4ccc(C)nc4)c(C)c3)c2c1 [CP-724714]
% of control [3]: 75%

CC[C@@H]1[C@H](F)C(=O)N[C@@H]1COc1nccc2cc(C(N)=O)c(OC)cc12 [ZIMLOVISERTIB]
% of inhibition [4]: -2.2%

COc1cc(N(C)c2ccnc3ccc(C(F)(F)F)cc23)cc(OC)c1OC
% binding [5]: 100%

C=CC(=O)Nc1cccc(C(=O)Nc2ccc(Nc3cc(-c4[nH]c(SC)nc4C)ccn3)cc2)c1
% of control ([6]; at 1 µM): 57% | % of control ([6]; at 5 µM): 21%

Cn1cc(-n2cnc3c(NCc4nc5cc(Cl)c(Cl)cc5[nH]4)nc(N4CCOCC4)nc32)cn1
% of inhibition [7]: 37.1%
